Data published in patent US20020013478A1, “Calanolide analogues and methods of their use” (Sarawak Medichem Pharmaceuticals,Inc., priority 1994, published 2002).

Experiments:
2.2.15 cells = assay: Toxicity in 2.2.15 cells, neutral red dye uptake; type: cell-based, human; conditions: Table II; read-out: HBV IC50
Description: Cells of 2.2.15 were grown to confluence in 96-well flat-bottomed tissue culture plates and treated with compounds (in 0.2 mL culture medium/well) as described above. Four concentrations of each compound were assayed, each in triplicate cultures, in 3- to 10-fold steps. Untreated control cultures were maintained on each 96-well plate. On each 96-well plate, wells containing no cells were used to correct for light scattering.

HCMV = HCMV semi-automated CPE-inhibition assay in human foreskin fibroblast cells; type: cell-based, human cytomegalovirus; conditions: Table II
[1] = tested on: human foreskin fibroblast cells; assay: Toxicity run with the HCMV assay, human foreskin fibroblast cells; type: cell-based; conditions: Table II
Method in brief: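 Human foreskin fibroblasts exposed to drug at 37 °C in CO2, either 72 h followed by Coulter Counter counts (triplicate counts, three replicate wells), or seven days followed by dye staining for 1 h and optical density at 550 nm.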

VZV = VZV plaque reduction assay in human foreskin fibroblast cells; type: cell-based, varicella zoster virus; conditions: Table II
Description: Two days prior to use, HFF cells are plated into six-well plates and incubated at 37° C. with 5% CO2 and 90% humidity. On the date of assay, the drug is made up at twice the desired concentration in 2x MEM and then serially diluted 1:5 in 2x MEM using six concentrations of drug. The initial starting concentration is usually 200 gg/mL down to 0.06 μg/mL. The virus to be used is diluted in MEM containing 10% FBS to a desired concentration which will give 20-30 plaques per well. The media is then aspirated from the wells and 0.2 mL of virus is added to each well in duplicate with 0.2 mL of media being added to drug toxicity wells. The plates are then incubated for one hour with shaking every fifteen minutes. After the incubation period, an equal amount of 1% agarose was added to an equal volume of each drug dilution. This will give final drug concentrations beginning with 100 μg/mL and ending with 0.03 μg/mL and a final agarose overlay concentration of 0.5%. The drug agarose mixture is applied to each well in 2 mL volume and the plates then incubated for three days, after which the cells were stained with a 1.5% solution of neutral red. At the end of 4-6hr incubation period, the stain is aspirated, and plaques counted using a stereomicroscope at lOx magnification.
The procedure is essentially the same as for the HSV plaque assay described above with two exceptions:
1. After addition of the drug, the plates are incubated for ten days.
2. On days three and six, an additional 1 mL overlay with equal amounts of 2x MEM and 1% agarose are added.

[2] = tested on: human foreskin fibroblast cells; assay: Toxicity run with the VZV assay, human foreskin fibroblast cells; type: cell-based; conditions: Table II
Description: [table] […] The media from the wells is then aspirated and 2 mL of each drug concentration is then added to each well. The cells are then incubated in a CO2 incubator at 37° C. for 72 h. At the end of this time, the media-drug solution is removed and the cells washed. […] The cell-media mixture is then pipetted up and down vigorously to break up the cell suspension, and 0.2 mL of the mixture is added to 9.8 mL of Isoton III and counted using a Coulter Counter. Each sample is counted three times with three replicate wells per sample. The procedure for plating cells and adding drug is the same as for the MTT Assay. After drug addition, the plates are incubated for seven days in a CO2 incubator at 37° C. […] This is incubated in the CO2 incubator for one hour. The dye is aspirated and the cells are washed using a Nunc Plate Washer. […] The plates are rotated for 15 minutes and the optical densities are read at 550 nm on a plate reader.

measles = assay: Measles virus inhibition of viral CPE in BSC-1 cells; type: cell-based; conditions: Table II footnote g
[3] = tested on: HCMV isolates Towne, AD169, E. Mann, Coffman, C9208; assay: Anti-CMV plaque reduction assay against various laboratory and clinical isolates (Example 40); type: cell-based, human cytomegalovirus
Description: On the date of assay, the drug is made up at twice the desired concentration in 2x MEM and then serially diluted 1:5 in 2x MEM using six concentrations of drug. The initial starting concentration is usually 200 gg/mL down to 0.06 μg/mL. […] The media is then aspirated from the wells and 0.2 mL of virus is added to each well in duplicate with 0.2 mL of media being added to drug toxicity wells. The plates are then incubated for one hour with shaking every fifteen minutes. […] This will give final drug concentrations beginning with 100 μg/mL and ending with 0.03 μg/mL and a final agarose overlay concentration of 0.5%. The drug agarose mixture is applied to each well in 2 mL volume and the plates then incubated for three days, after which the cells were stained with a 1.5% solution of neutral red. At the end of 4-6hr incubation period, the stain is aspirated, and plaques counted using a stereomicroscope at lOx magnification. The procedure again is nearly the same as for HSV with a few minor changes. […] The assay is incubated for 14 days with the additional 1 mL overlays being applied on days four and eight. The procedure for the liquid overlay plaque assay is similar to that using the agarose overlay. The procedure for adding the virus is the same as for the regular plaque assay. The drugs are made up in a concentration to be used in MEM with 2% FBS. The drugs are not made up at 2x concentration as in the previous assays but are made up at the desired concentration. For HSV-1 and HSV-2 assays, an antibody preparation obtained from Baxter Health Care Corporation is diluted 1:500 and added to the media that the drug is diluted in. For CMV and VZV, no antibody in the overlay is utilized. For the CMV assay, additional medium without new drug is added on day five and allowed to incubate for a total of 10 days. For VZV, additional medium is added on day five and incubated for a total of 10 days. At the end of the incubation period for all of the assays, 2 mL of 1:10 dilution of stock neutral is added to each well incubated for six hours. The liquid is then aspirated off and plaques enumerated using a stereomicroscope. Five calanolide analogues, prepared as described above, were further evaluated for their anti-HCMV activity in plaque reduction assay against various laboratory and clinical isolates (Towne, AD 169, E. Mann, Coffinan, and […]).

[4] = tested on: human foreskin fibroblast cells; assay: Cell viability in the CMV plaque reduction assay (MTC); type: cell-based
From the text: Five calanolide analogues, prepared as described above, were further evaluated for their anti-HCMV activity in plaque reduction assay against various laboratory and clinical isolates (Towne, AD 169, E. Mann, Coffinan, and C9208).

[5] = tested on: Human lung carcinoma (A549) cells; assay: Cytotoxicity run with the adenovirus assay; conditions: read-out: Others IC50, against adenovirus type-1; Table II footnote h
HBV = HBV replication in cultures of 2.2.15 cells, extracellular HBV virion DNA (primary assay); conditions: read-out: HBV EC50; Table II
EBV = EBV assay: superinfection of Raji or Daudi cells with P3HR-1, immunofluorescence for EA and VCA; type: cell-based, Epstein-Barr virus; conditions: Table II
From the text: There are two prototypes of infectious EBV. One is exemplified by the virus derived from supernatant fluids of the P3HR-1cell line. This cell line produces nontransforming virus that causes the production of early antigen (EA) after primary infection or superinfection of B cell lines. The other prototype is exemplified by the B-95-8 virus. This virus immortalized cord blood lymphocytes and induced tumors in marmosets.
The virus used in our assays is P3HR-1.
Ramos is an exceptional B cell line derived from Burkitt's lymphoma tumor but containing no detectable EBV genome copies and is EBNA negative. Ramos/AW was obtained by in vitro infection of Ramos with the P3HR-1 virus and contains one resident EBV genome copy/cell. Raji is a Burkitt's lymphoma cell line containing 60 EBV genomes/cell, and will be the primary cell used for screening antiviral activity against EBV EA expression. Daudi is a low level producer that contains 152 EBV genome copies/cell. It spontaneously expresses EBV EA in 0.25%-0.5% of the cells. It will be used in follow-up studies to confirm activity. These cell lines respond to superinfection by EBV by expressing EA(D), EA(R), and VCA. All cell lines are maintained in RPMI-1640 medium supplemented by 10% FCS, L-glutamine and 100 μg/mL gentamicin. The cultures are fed twice weekly and the cell concentration adjusted to 3×10^5/mL. The cells are kept at 37° C. in a humidified atmosphere with 5% CO2.
Cells are infected with the P3HR-1 strain of EBV and the drugs to be tested are added after adsorption (45 minutes at 37° C.) and washing of the cell cultures. The cultures are incubated for two days in complete medium to allow viral gene expression. Following the 48 hr incubation period, the number of cells of each sample are counted and smears made. Monoclonal antibodies to the different EA components and VCA are then added to the cells incubated and washed. This is followed by a fluorescein conjugated rabbit anti-mouse Ig antibody; and the number of fluorescence positive cells in the smears are counted. The total number of cells in the cultures positive for EA or VCA are then calculated and compared.

Raji or Daudi cells = assay: Toxicity run with the EBV assay; type: cell-based, human; conditions: Table II
From the text: IC50 (50% inhibitory concentration) is the concentration required to inhibit cell proliferation by 50%

influenza A(H1N1) = assay: Influenza A inhibition of viral CPE in MDCK cells; type: cell-based, influenza A virus; conditions: Table II footnote i; read-out: Others EC50, against influenza A(H1N1)
[6] = tested on: Madin Darby canine kidney (MDCK) cells; assay: Cytotoxicity run with the influenza assay; type: cell-based; conditions: Table II footnote i; read-out: Others IC50, against influenza A(H1N1)
Description: Virus strains: A/Texas/36191 (H1N1) (Source: Center for Disease Control and Prevention [CDC]), A/Beijing/2/92 (H3N2) (Source: CDC), B/Panama/45/90 (Source: CDC), A/NWS/33 (H1N1) (Source: American Type Culture Collection [ATCC]). (All but A/NWS/33 are tested in the presence of trypsin). Cell lines: Madin Darby canine kidney (MDCK) cells.

Structure (SMILES): CCCc1cc(=O)oc2c3c(c4c(c12)OC(C)(C)CC4)OC(C)C(C)C3O (single isomer, unassigned; (-)) [(−)-23]
- IC50 (2.2.15 cells): 340 µM
- HCMV EC50 (HCMV): >4.0 µg/mL
- HCMV IC50 [1]: 18.8 µg/mL
- VZV EC50 (VZV): >4.0 µg/mL
- VZV IC50 [2]: 16.0 µg/mL
- Others EC50, against measles (measles): 20^g μM
- EC50 ([3]; isolate AD169): 3.16 µM
- EC50 ([3]; isolate C9208): 2.99 µM
- EC50 ([3]; isolate Coffman): 3.16 µM
- EC50 ([3]; isolate E. Mann): 3.16 µM
- EC50 ([3]; isolate Towne): 3.16 µM
- MTC (minimum drug concentration that reduced cell viability by 25%) ([4]; isolate AD169): 10 µM
- MTC (minimum drug concentration that reduced cell viability by 25%) ([4]; isolate C9208): 10 µM
- MTC (minimum drug concentration that reduced cell viability by 25%) ([4]; isolate Coffman): <100 µM
- MTC (minimum drug concentration that reduced cell viability by 25%) ([4]; isolate E. Mann): 10 µM
- MTC (minimum drug concentration that reduced cell viability by 25%) ([4]; isolate Towne): 10 µM
- IC50 [5]: > 100 µM
- EC50 (HBV): 3.5 µM

Structure (SMILES): CC1Oc2c3c(c4c(-c5ccccc5)cc(=O)oc4c2C(O)C1C)OC(C)(C)C=C3 (single isomer, unassigned; (-)) [(−)-24]
- IC50 (2.2.15 cells): 151 µM
- HCMV EC50 (HCMV): >4.0 µg/mL
- HCMV IC50 [1]: 14.4 µg/mL
- EBV EC50 (EBV): >50 µg/mL
- EBV IC50 (Raji or Daudi cells): >50 µg/mL
- VZV EC50 (VZV): >4.0 µg/mL
- VZV IC50 [2]: 12.0 µg/mL
- EC50 (influenza A(H1N1)): 57 µM
- IC50 [6]: > 100 µM
- EC50 (HBV): > 10 µM
